Assay results taken from patent publication US20240148684A1, “COMPOUNDS AND METHODS FOR TREATING CONGENITAL ERYTHROPOIETIC PORPHYRIA” (RUTGERS, THE STATE UNIVERSITY OF NEW JERSEY, priority 2021, published 2024).
Each block holds one molecule with its values, some of them ahead of it.

Columns and labels:
[1] = tested on: Saos-2 cells; assay type: cell-based, human
Description: Saos-2 cells were purchased from ATCC. Cells were maintained in McCoy 5A medium supplemented with 15% FBS, penicillin/streptomycin, non-essential amino acids, Hepes and L-glutamine. To induce mineralization, cells were treated with mineralization activation cocktail (MAC), consisting of 5 mM b-glycerophosphate, […] ascorbic acid and 10 nM dexamethasone. Uro-I solution preparation and treatment of zebrafish larvae and Saos-2 cells
(§1) Saos-2 cells were plated in 12-well plates (1.5×10^5 cells/well) and allowed to attach overnight. Cells were then treated with Uro-I ([…] final concentration) or vehicle in medium containing MAC for 3 days. Experiments were conducted in a dark room and cells were kept shielded from light in a tissue culture incubator.
Etretinate (Selleck Chemicals, Houston, TX) and tretinoin (Selleck Chemicals, Houston, TX) treatment was performed as described for acitretin. In addition to being used as prophylaxis, the therapeutic effect of acitretin was evaluated. […] Porphyrin binding, excretion and bone volume were analyzed. […]
Cell mineralization was quantified by ARS (Sigma Aldrich St. Louis, MO) staining as described previously (Harper, E. et al. PLoS One 12, e0188192, doi:10.1371/journal.pone.0188192 (2017)), with minor modifications. […] ARS standard curve (from 2-0.02 mM) and samples were transferred in triplicate to a 96-well plate and absorbance was measured at 405 nm.

[2] = tested on: Saos-2 cells; assay type: cell-based, human; remark: listed apart in the source
Description: as §1
(§2) Etretinate (Selleck Chemicals, Houston, TX) and tretinoin (Selleck Chemicals, Houston, TX) treatment was performed as described for acitretin. In addition to being used as prophylaxis, the therapeutic effect of acitretin was evaluated. Six dpf AB×TL zebrafish larvae were injected with Uro-I and 24 hours later they were transferred to E3 medium containing […] acitretin or DMSO. Porphyrin binding, excretion and bone volume were analyzed. Saos-2 cells were treated with […] acitretin or DMSO in medium containing MAC and Uro-I.
Saos-2 cells RNA was extracted using RNeasy mini kit (Qiagen, Catalog #: 74104). and gene expression was carried using the RT^2 Profiler PCR Array for human cellular stress responses (Qiagen, Catalog #: PAHS-019ZA) following manufacturer's instructions. A previously described qPCR (Elenbaas, J. S. et al. Gastroenterology 154, 1625-1629 e1628, doi:10.1053/j.gastro.2018.01.024 (2018)) was performed for COL1A1 and SERPINH1 (IDT Integrated DNA Technologies, PrimeTime assay ID Hs.PT.58.15517795 and Hs.PT.56a.26865778, respectively).

[3] = tested on: zebrafish larvae; conditions: in vivo
Description: Uro-I (uroporphyrin-I dihydrochloride; Frontier Scientific, Catalog #: U830-1) was initially resuspended in 0.1M NaOH and the pH was adjusted to neutral using 0.2 M Na2HPO4. Six days post fertilization (dpf), ABTL zebrafish larvae were injected via the retro-orbital route with approximately 3 nL of 7.2 mM Uro-I solution and control larvae were injected with vehicle (0.1M NaOH in 0.2M Na2HPO4). After injection, larvae were immediately transferred to Petri dishes wrapped with heavy duty aluminum foil and kept in a dark incubator, at 28.5° C., for 24 h. Where indicated, 7 dpf larvae were injected with approximately 2 nL of 0.2% w/v calcein (Sigma, Catalog #: C0875) 2 h prior to imaging.
Seven dpf AB×TL zebrafish larvae were anesthetized with tricaine-S (Syndel) and immobilized in 0.5% low melt agarose. Fluorescent z-series were captured using an Olympus FV500 confocal microscope (10× objective, confocal aperture of 300 mm) with an optical thickness of 10 mm and z-step size of 10 mm. Calcein was excited with a 488 nm argon laser and emission was captured between 505 and 525 nm. Porphyrin was excited with a 405 nm laser diode and emission was captured above 560 nm. Three-dimensional image reconstruction and quantification of fluorescent signal and bone volume were performed using Imaris 3D visualization and analysis software v7.7 (Bitplane).

[4] = tested on: uro-I injected zebrafish larvae; assay: Zebrafish CEP model, prophylaxis protocol (retinoid co-administered with uro-I injection); assay type: in vivo, Zebrafish (Danio rerio); conditions: 24 hours, vs DMSO; for porphyrin fluorescence in bones (operculum and vertebrae): 10 μM in E3 medium
Description: Techniques that can be used to perform the methods of the invention are described by Elenbaas, J. S., et al., FASEB, 2016, 30, 1798-1810; and Cunha, J. B., Scientific Reports, 2021, 11, 9601.
Validation and characterization of acitretin as a potential treatment for CEP was performed. Six dpf ABTL zebrafish larvae injected with uro-I were immediately transferred to 10 cm plastic dishes containing 10 μM acitretin or DMSO in E3 medium (prophylaxis protocol FIG. 2A) and incubated for 24 hours in the dark at 28.5° C. Porphyrin binding to bones and bone volume were analyzed by confocal microscopy as described above. Porphyrin excretion into the medium was quantified. Uro-I-injected larvae were transferred to 96-well plates, one larva/well, […] of […] acitretin or DMSO/well. Medium was collected after 24 hours and porphyrin was quantified as described previously.
as §2

[5] = tested on: uro-I injected zebrafish larvae; assay: Zebrafish CEP model, therapeutic protocol (acitretin 24 hours after uro-I injection); assay type: in vivo, Zebrafish (Danio rerio); conditions: acitretin from 24 hours after uro-I, further 24 hours
Description: as §2

[6] = tested on: uro-I injected zebrafish larvae; assay: High throughput drug screening (Prestwick library) in zebrafish CEP model; assay type: in vivo, Zebrafish (Danio rerio); conditions: 24 h, visual analysis vs DMSO-treated larvae, drug tested individually
Description: Unbiased high throughput drug screening was performed using the Prestwick library (Prestwick Chemical), which consists of 1,280 small molecules chosen by the manufacturer for their bioavailability and safety. […] Zebrafish E3 medium ([…]) was transferred to a 96-well half area imaging plate (Corning, cat. n. 3880) using a Multidrop dispenser (ThermoFisher Scientific). Compounds ([…] of 2 mM stock) were added to the wells using a multichannel plate handling robot (Biomek FX, Beckman Coulter Life Sciences). […] Control wells contained […] of DMSO.
Six dpf NHGRI-1 zebrafish larvae were injected retro-orbitally with approximately 2 nL of a solution of Uro-I (10 mM) and calcein (0.2% w/v). Immediately after injection, larvae were transferred to a 96-well test plate (two larvae in […] of E3 medium/well), including the DMSO control wells. Control larvae injected with the drug vehicle (dimethyl sulfoxide, DMSO) and calcein were transferred to E3 medium-only containing wells. Larvae were kept in the dark, at 28.5° C. After 24 h, they were anesthetized with tricaine-S, centrifuged at 500×g for two minutes and imaged using the ImageXpress Micro Cellular Imaging and Analysis System (Molecular Devices). Positive hits were selected based on visual identification of calcein signal increase and porphyrin signal decrease compared to DMSO-treated larvae. […]

[7] = tested on: zebrafish larvae; assay: Acitretin dose-response curve, toxicity to zebrafish larvae; assay type: in vivo, Zebrafish (Danio rerio); conditions: dose-response 0.5-12.5 mM
[8] = tested on: Saos-2 cells; assay: Saos-2 immunoblotting of ER stress (BiP) and autophagy (LC3-II) markers; assay type: cell-based, human; conditions: acitretin with MAC and Uro-I, vs DMSO
Description: as §1, §2
Saos-2 cells were lysed in ice cold RIPA buffer (Sigma Aldrich, St. Louis, MO) with protease inhibitor cocktail (Thermo Scientific, Waltham, MA) and scraped. Whole cell lysate was kept in the dark until reducing SDS-PAGE sample buffer was added. Immunoblotting, band densitometry and mass spectrometry were conducted as described previously (Maitra, D. et al. Cell Mol Gastroenterol Hepatol 8, 659-682 e651, doi:10.1016/j.jcmgh.2019.05.010 (2019); and Maitra, D. et al. J Biol Chem 290, 23711-23724, doi:10.1074/jbc.M114.636001 (2015)). […]

[9] = acitretin in uro-I treated cells

mineralization (ARS staining) [1]: decreased significantly
HSPA5 expression increase [2]: 2.1 ×
SERPINH1 expression decrease [2]: 3.3 ×
SOD3 expression increase [2]: 2.8 ×
reduction in COL1A1 expression [2]: 90%
operculum and 4th vertebra volume [3]: significantly decreased
SMILES: Cl.Cl.O=C(O)CCC1=C(CC(=O)O)c2cc3nc(cc4[nH]c(cc5[nH]c(cc1n2)c(CC(=O)O)c5CCC(=O)O)c(CC(=O)O)c4CCC(=O)O)C(CC(=O)O)=C3CCC(=O)O [Uro-I, uroporphyrin-I dihydrochloride]

SMILES: CC1=C(/C=C/C(C)=C/C=C/C(C)=C/C(=O)O)C(C)(C)CCC1 [tretinoin, all trans-retinoic acid]
porphyrin fluorescence in bones (operculum and vertebrae) [4]: significantly reduced
operculum volume (bone volume) [4]: did not prevent loss in bone volume

SMILES: COc1cc(C)c(/C=C/C(C)=C/C=C/C(C)=C/C(=O)O)c(C)c1C [acitretin]
porphyrin fluorescence in bones (operculum and vertebrae) [4]: significantly reduced
operculum volume (bone volume) [4]: no effect
uro-I excretion into the medium [4]: increased
bone porphyrin fluorescence [5]: did not decrease
operculum volume [5]: increased
uro-I excretion to the medium [5]: increased
uro-I accumulation in bones (screening hit) [6]: decreased uro-I accumulation in bones
toxicity to zebrafish larvae [7]: without being toxic
uro-I-mediated loss of mineralization (ARS staining) ([1]; 10 mM acitretin in medium containing MAC and Uro-I): did not prevent
BiP level (ER stress response) [8]: reducing BiP level
LC3-II (autophagic flux) [8]: reducing LC3-II
SOD3 downregulation [2, 9]: 3.8 fold
Upregulation of COL1A1 [2, 9]: 1.7 ×
Upregulation of SERPINH1 [2, 9]: 5.4 ×

SMILES: CCOC(=O)/C=C(C)/C=C/C=C(C)/C=C/c1c(C)cc(OC)c(C)c1C [etretinate]
porphyrin fluorescence in bones (operculum and vertebrae) [4]: did not demonstrate significant activity
